From patent US4738979A, “α2 -blocking derivatives of imidazole” (G. D. Searle & Co., priority 1985, dated 1988)

Columns and labels:
[1] = test system: α2 adrenergic receptors of the central nervous system; assay: inhibition of the antihypertensive action of clonidine in spontaneously hypertensive rats (SHR); assay type: in vivo, rat; settings: 1 mg/kg p.o., clonidine 50 μg/kg s.c.
Protocol: In the first study, carried out upon unanaesthetized spontaneously hypertensive rats (SHR rats), the ability of the compounds of the present invention to inhibit the antihypertensive action of clonidine was determined.
The antihypertensive activity of clonidine results from an interaction with α2 adrenergic receptors of the central nervous system, i.e., central antihypertensive actions.
In this test, two groups of SHR rats are utilized as follows. In the first group, prior to subcutaneous administration of clonidine (50 μg/kg), the SHR rats are treated with the compound to be tested (1 mg/kg p.o.) dissolved in a saline vehicle. The second group (control group) of SHR rats are treated with the saline vehicle only, prior to subcutaneous administration of clonidine.
The arterial pressure is measured in the region of the median coccygeal artery according to the method of J. Roba, A. F. DeSchaepdrijver, Exp. Anim., 4, 147-162 (1971).
The results of this assay summarized in Table II, column 5, are expressed as a percentage of inhibition of the effect of clonidine.

α2 -adrenergic receptors [2] = biological target: T1, α2 -adrenergic receptors (Rattus norvegicus, UniProt P22909); assay: binding to α2-adrenergic receptors on rat brain homogenates (3H-p. aminoclonidine); settings: 10^-7 M; for inhibition at 0.1 µM: rat brain homogenates, 0.7 nM 3H-p. aminoclonidine, read-out: % Inhibition of the Specific Binding at 10^-7 M for α2 Recep.
T1 construct: from tissue; host or cells: rat brain homogenates
T1 sequence (P22909 1-465): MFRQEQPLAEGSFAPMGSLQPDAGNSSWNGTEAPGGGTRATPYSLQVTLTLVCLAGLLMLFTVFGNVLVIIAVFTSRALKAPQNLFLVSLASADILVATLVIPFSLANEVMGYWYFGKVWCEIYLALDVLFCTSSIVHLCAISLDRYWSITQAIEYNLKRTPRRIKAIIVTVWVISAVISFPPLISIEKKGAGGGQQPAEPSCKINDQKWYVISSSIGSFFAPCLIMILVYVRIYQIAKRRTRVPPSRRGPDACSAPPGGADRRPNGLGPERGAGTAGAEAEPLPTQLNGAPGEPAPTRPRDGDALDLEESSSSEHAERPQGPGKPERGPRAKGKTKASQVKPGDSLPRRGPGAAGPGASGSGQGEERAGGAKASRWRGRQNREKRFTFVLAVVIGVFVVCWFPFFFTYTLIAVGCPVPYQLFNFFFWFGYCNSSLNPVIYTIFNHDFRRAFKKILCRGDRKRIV
Protocol: (§1) The activity of the compounds according to the invention with respect to binding of the α-adrenergic receptors was determined in vitro according to a method deriving from the works of B. R. Rouot et al., Life Sci., 25, 769 (1979) and of D. U'Prichard et al., Mol. Pharmacol., 13, 454 (1977). This method consists in measuring the binding to the receptor on rat brain homogenates, by marking by means of a specific tritriated ligand placed in competition with the product to be tested.
(§2) In the presenct case the binding to the α1 -adrenergic receptors was measured by means of 1.6 nM of ^3 H-WB 4101 and the binding to the α2 -adrenergic receptors by means of 0.7 nM of ^3 H-p. aminoclonidine, the non-specific binding being determined by 1,000 nM of phentolamine. The results are given in Table II, column 3, and are expressed in terms of percentage of inhibition of the specific binding of 10^-7 molar compound concentration.
(§3) (2) The specific binding is the total binding less the nonspecific
(§4) binding. The total binding is the binding in the absence of nonradioactiv
(§5) drug. The nonspecific binding is the binding in the presence of 1,000 nM
(§6) of phentolamine. The products of the invention are tested at a
(§7) concentration of 10^-7 molar.

[3] = test system: 3-mercaptopropionic acid (3-MPA)-induced tonic extension in mice; assay: protection against 3-mercaptopropionic acid (3-MPA)-induced tonic extension in mice; assay type: in vivo; settings: 100 mg/kg orally, 30 minutes prior to 3-MPA (120 mg/kg s.c.)
Protocol: (§8) In the second study the anti-convulsant effect of the compounds of the present invention was examined in two seizure models; bicuculline-induced tonic extension in mice and 3-mercaptopropionic acid (3-MPA)-induced tonic extension in mice.
(§9) In the bicuculline study, the ability of the compounds of the present invention to protect against tonic extension (involving rigidity) was evaluated as follows. Each test compound was administered to a group of ten mice at a dose of 10 mg/kg, 3 hours prior to the i.v. administration of bicuculline (0.7 mg/kg). Anticonvulsant activity in this test is expressed as percentage of animals tested. The results are given in Table II, column 6, and indicate that several compounds display significant anticonvulsive activity in this test. The anticonvulsant effect of the compounds has also been tested with respect to the tonic extension induced by 3-mercaptopropionic acid (120 mg/kg subcutaneously) in mice.
In the 3-MPA assay, the compounds of the present invention are administered orally at a dose of 100 mg/kg 30 minutes prior to administration of 3-MPA. Each compound was tested on a group of 5 mice; if more than 1 mouse was protected, a second group of 5 mice was tested.

α1 -adrenergic receptors = assay: binding to α1-adrenergic receptors on rat brain homogenates (3H-WB 4101); settings: 1.6 nM 3H-WB 4101
Protocol: as §1, §2, §3, §4, §5, §6, §7

[4] = test system: bicuculline-induced tonic extension in mice; assay: protection against bicuculline-induced tonic extension in mice; assay type: in vivo; settings: Mus musculus, iv, 3 hours prior to bicuculline 0.7 mg/kg i.v., read-out: Anticonvulsive effect (versus Bicuculline) (% Protection)
Protocol: as §8, §9

α2 -adrenergic receptors [5] = biological target: T2, α2 -adrenergic receptors (Cavia porcellus, UniProt Q60474); assay: α2 antagonist and α2 agonist activity in isolated guinea pig ileum (clonidine)
T2 construct: from tissue; host or cells: isolated guinea pig ileum
T2 sequence (Q60474 1-464): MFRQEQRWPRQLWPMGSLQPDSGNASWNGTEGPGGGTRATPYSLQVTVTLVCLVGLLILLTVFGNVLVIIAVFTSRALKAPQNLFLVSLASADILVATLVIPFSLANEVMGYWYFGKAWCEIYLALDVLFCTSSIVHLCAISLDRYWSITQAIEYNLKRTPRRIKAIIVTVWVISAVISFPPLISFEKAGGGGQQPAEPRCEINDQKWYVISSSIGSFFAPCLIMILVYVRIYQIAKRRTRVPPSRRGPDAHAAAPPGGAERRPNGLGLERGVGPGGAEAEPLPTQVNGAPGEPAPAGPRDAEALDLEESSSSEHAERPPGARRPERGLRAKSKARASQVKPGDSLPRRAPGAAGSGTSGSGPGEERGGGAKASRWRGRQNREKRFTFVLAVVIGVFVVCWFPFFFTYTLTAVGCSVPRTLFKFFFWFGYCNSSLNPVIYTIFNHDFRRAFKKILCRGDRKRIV
Protocol: The α2 antagonist and α2 agonist activity of the compounds according to the invention was determined upon isolated organs according to a model described by G. M. Drews, Br. J. Pharmaco., 64, 293-300 (1978).
This model is based upon the principle that the stimulation of the cholinergic nervous transmissions of the guinea pig ileum causes the liberation of acetyl choline, which in turn causes contractions of the ileum.
The stimulation of the α2 -adrenergic receptors inhibits the activity of the cholinergic nerve and consequently reduces all response resulting from a timulation of the latter. Thus the contractions of the ileum induced by electric stimulation of the tissue are inhibited by clonidine, an α2 agonist, in proportion to the dose. This inhibition is specifically displaced by the α2 antagonists and not by the α1 antagonists.
The method utilized can be summarized as follows: three dose-response curves to clonidine are established at an interval of 60 minutes. Two concentrations of the product to be tested are added successively 10 minutes before the realization of the second and third clonidine curves. Next, after washing, a dose-response curve is established with the product to be tested.
The dose-response curves are calculated as a percentage of the maximum inhibition obtained for the first curve. In this system the products having an α2 antagonist activity displace the dose-response curve to clonidine. The α2 antagonist activity, expressed in pA2 value, shown in column 4, is calculated according to J. M. Van Rossum, Arch. Int. Pharmacodyn., 143, 299-300 (1963).
A reduction of the contractions induced by the tested product alone indicates an α2 agonist effect. This activity is expressed in--log ED50 (the--logarithm of the concentration of the product giving 50% of the maximum inhibition obtained with clonidine).
The higher the pA2 value, the higher the α2 antagonist activity; the higher the--log ED50 value (i.e., the pA2 agonist activity), the higher the α2 agonist activity.

[6] = test system: peripheral vascular α2 receptors; assay: inhibition of the pressor effect of BHT 920 in pithed rats; assay type: in vivo, rat; settings: 1 mg/kg i.v., BHT 920 30 μg/kg i.v.
Protocol: The α2 antagonist activity of the compounds is evaluated by the inhibition of the pressor effect (blood pressure elevation), of a specific α2 agonist agent, 4H-Thiazolo[4,5-b]azetin-2-amine, 5,6,7,8-tetrahydro-6-(2-propenyl)-, dihydrochloride, designated as BHT 920 at a concentration of 30 μg/kg i.v.) according to a method described by J. C. Van Meel et al., J. Pharmacol. Exp. Ther., 219, 760-767 (1981).
The compound to be tested is administered at 1 mg/kg i.v. The ability of the compounds tested to antagonize the pressor effects of BHT 920 is determined and expressed as percentage of inhibition. Any direct hypertensive (=α2 agonist) activity of the compounds under test can likewise be detected.

[7] = acute toxicity after oral administration to mice (LD50); settings: mouse, in vivo, 15 days mortality
Protocol: The acute toxicity of the compounds of the present invention was studied after oral administration to mice. The products to be tested, suspended in a 1% tragacanth gum mucilage, were administered by means of an intragastric probe to groups of three male mice which had fasted since the preceding day. The doses tested are a function of the effect observed and can vary from 3,000 to 3 mg/kg or less. The mortality was recorded for 15 days. The lethal dose for 50% of the animals (LD50) was calculated according to the method of J. Litchfield and F. Wilcoxon, J. Pharmacol. Exp. Ther., 96, 99 (1949) and expressed in mg/kg. The effect of the products on the behaviour of the animals is observed until 5 to 6 hours after the treatment indicated above and after 24 hours, using a method derived from that of S. Irwin, described by R. A. Turner, Screening Methods in Pharmacology, Chapter 3, pages 22-34, Academic Press, 1965. If anomalies are noted, the observation is prolonged and smaller doses are tested.

| Compound | α2 Antagonist (% Inhibition of the Antihypertension of Clonidine) [1] [%] | inhibition at 0.1 µM (α2 -adrenergic receptors [2]) [%] | anticonvulsant effect versus 3-MPA (in words) [3] | % Inhibition of the Specific Binding at 10^-7 M for α1 Recep. (α1 -adrenergic receptors) [%] | responders at 10 mg/kg [4] [%] | EC50 (α2 -adrenergic receptors [5]; 50% of maximum inhibition obtained with clonidine, read-out: α2 Agonist Activity (-log ED50) (converted)) [nM] | Kb (α2 -adrenergic receptors [5]; versus clonidine, read-out: α2 Antagonist Activity (pA2) (converted)) [nM] | α2 antagonist activity, inhibition of pressor effect of BHT 920 (in words) [6] | LD50 at 360 h [7] [mg/kg] | affinity for α2 receptors (in words) (α2 -adrenergic receptors [2]; in vitro binding assay) |
| --- | --- | --- | --- | --- | --- | --- | --- | --- | --- | --- |
| CC(O)(c1c[nH]cn1)C(c1ccccc1)c1ccccc1 (centres unmarked) [Compound 3] | 67 | 10 | potent anticonvulsant effect | 0 | 10 | – | – | – | – | – |
| Cc1[nH]cnc1CC(c1ccccc1)c1ccccc1 [Compound 7, 4(5)-(2,2-diphenylethyl)-5(4)-methyl imidazole] | 82 | 23 | – | 12 | 20 | 2000 | 50.1 | very active as α2 antagonist agents | – | – |
| CC(Cc1c[nH]cn1)(c1ccccc1)c1ccccc1 [Compound 10, 4(5)-[1-(2,2-diphenyl)-propyl]imidazole] | 46 | 6 | potent anticonvulsant effect | 0 | 27 | – | – | – | – | – |
| Cc1ccc(C(Cc2c[nH]cn2)c2ccccc2)cc1C (centres unmarked) [Compound 22] | 57 | 22 | – | 4 | 20 | – | – | very active as α2 antagonist agents | 155 | – |
| COc1ccc(C(Cc2c[nH]cn2)c2ccc(OC)cc2)cc1 [Compound 23] | 40 | 20 | – | 0 | 10 | – | – | very active as α2 antagonist agents | – | – |
| Cc1ccc(C(Cc2c[nH]cn2)c2ccccc2)c(C)c1 (centres unmarked) [Compound 24] | 93 | 34 | potent anticonvulsant effect | 0 | 0 | – | – | – | – | – |
| Fc1cccc(F)c1C(Cc1c[nH]cn1)c1ccccc1 (centres unmarked) [Compound 27, 4(5)-{[2-(2-fluorophenyl)-2-(6'-fluorophenyl)]ethyl}imidazole] | – | 86 | potent anticonvulsant effect | 14 | – | – | – | – | 173 | high affinity |
